Assay results from patent publication US20130123253A1, “MODULATORS OF CENTRAL NERVOUS SYSTEM NEUROTRANSMITTERS” (HUMAN BIOMOLECULAR RESEARCH INSTITUTE, priority 2004, published 2013).
Read-outs that look alike come from different tables or passages of the source.

Key:
Balb/c mice = assay: Forced-swim test in Balb/c mice; format: in vivo, mouse; details: for duration of immobility, forced-swim test, acute: i.p. 30 min prior, fluoxetine 20 mg/kg, test compounds 10 mg/kg
Method: The study was conducted according to a standard operation procedure and in accordance with all Federal regulations. Water and food were freely available in the home cages. […] Mice were given a swimming pretest session, once a day for two successive days. […] During the pretest and test sessions, each mouse was placed for […] in a plastic cylinder (45 cm high×20 cm diameter), which was filled to a depth of 28 cm with water (23±1° C.). The duration of immobility, which was defined as floating in an upright position without additional activity other than that necessary for the animal to keep its head above water, was recorded. For the subchronic administration tests, the animals were separated as above and vehicle or chemicals were given by i.p. administration 23, 5 and 1 hr before the FST. The subchronic experiments were done similar to the study described above except for the pretest training that was not carried out.
Mice in the first session were treated with vehicle or the drugs acutely, whereas mice in the second sessions were treated subchronically, i.e., vehicle or drugs were given i.p. 23, 5, and 1 hr before the FST. The experiment was performed similar to Experiment 1 except for the pretest training, which was not carried out in the second session.

Swiss-Webster mice = assay: animal or person; format: in vivo, mouse
Method: A time course/dose response study of cocaine-induced locomotor stimulation was conducted beginning Feb. 21, 2000, according to a locomotor activity studies time course protocol. […]. A panel of infrared beams (16 beams) and corresponding photodetectors were located in the horizontal direction along the sides of each activity chamber. A 7.5-W incandescent light above each chamber provided dim illumination. Fans provided an 80-dB ambient noise level within the chamber. […]. In all studies, horizontal activity (interruption of photocell beams) was measured for 8 hours within 10-min periods, beginning at 0800 hrs (2 hours after lights on). Testing was conducted with one mouse per activity chamber.
. Behavioral observations were recorded on each mouse at 30, 120 and 480 minutes following 100 mg/kg compound 31,646.

human PDE4A1 = molecular target: T1, human PDE4A1 (Homo sapiens, UniProt P27815); assay: Inhibition of cAMP hydrolysis by recombinant human PDE4A1; format: biochemical
T1 construct: made in house
T1 sequence (P27815 1-647 isoform P27815-4): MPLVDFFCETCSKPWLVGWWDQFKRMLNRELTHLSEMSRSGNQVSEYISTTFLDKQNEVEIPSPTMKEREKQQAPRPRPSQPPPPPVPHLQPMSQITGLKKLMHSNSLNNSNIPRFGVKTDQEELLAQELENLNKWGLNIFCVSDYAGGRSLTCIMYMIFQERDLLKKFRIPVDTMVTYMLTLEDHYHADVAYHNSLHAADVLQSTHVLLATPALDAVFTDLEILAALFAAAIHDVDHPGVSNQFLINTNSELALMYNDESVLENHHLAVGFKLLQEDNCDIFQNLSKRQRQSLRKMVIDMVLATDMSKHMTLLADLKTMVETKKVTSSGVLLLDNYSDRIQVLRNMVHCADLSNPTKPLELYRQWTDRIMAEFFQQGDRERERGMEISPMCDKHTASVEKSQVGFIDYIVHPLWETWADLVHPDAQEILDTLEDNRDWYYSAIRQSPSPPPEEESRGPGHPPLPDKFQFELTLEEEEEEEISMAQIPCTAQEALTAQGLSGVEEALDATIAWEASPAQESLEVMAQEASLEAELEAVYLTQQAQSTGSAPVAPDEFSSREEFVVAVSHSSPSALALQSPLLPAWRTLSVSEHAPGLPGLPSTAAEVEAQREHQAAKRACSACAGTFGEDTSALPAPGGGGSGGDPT
Method: (§1) PDE4 enzyme assays were carried out as described previously. Studies with recombinant PDE4 enzymes were carried out in the laboratory of Professor Marco Conti (Stanford University, Palo Alto, Calif.).

[1] = Human liver microsome stability assay; format: in vitro ADME; details: for half-life at 40 μM: human, liver microsomes, pH 7.4, Table 16, read-out: HLM t1/2
Method: (§2) Microsomal incubations (final volume 0.25 mL) with the SSRIs, dual PDE4 inhibitor/SSRIs or PDE4 inhibitor was done with an HPLC assay as described above. Diluted stocks of either mouse, human or rat liver microsomes (0.5 mg of protein), […] potassium phosphate buffer (pH 7.4), 0.5 mM NADI)^+, 0.5 mM glucose-6-phosphate, 5 IU/mL glucose-6-phosphate dehydrogenase, 0.6 mM DETAPAC, and 3 mM MgC12 were combined and placed on ice. For a metabolic stability assay, either vehicle or 40 μM test compound was added and the incubation was initiated at 37° C. with constant shaking. After 0, 10, 25, 40 and 60 min, the incubations were stopped by the addition of 1 mL CH2Cl2/2-propanol (3:1, v:v). After thorough mixing, the organic layer was separated from the aqueous portion by centrifugation at 12,000×g. The organic material was evaporated with a stream of argon. The residue was dissolved in methanol (200 μL) and the sample was analyzed by HPLC.

ICR mice = assay: Forced-swim test in ICR mice; format: in vivo, mouse
Method: Forty male ICR mice, weighed 26.2±0.3 g, were housed in a temperature-controlled room (22-23° C.) and maintained on a 12-hour on 12-hour off light cycle (lights on at 6:00 AM). Water and food were freely available in the home cages. […] Saline containing the same percentage of DMSO was used as vehicle. The lower doses were tested followed by the larger doses 1 week later, when the mice were again randomly divided into four groups as described above. The forced-swim test (FST) was carried out as described previously. Mice were given a swimming pretest session, once a day for two successive days. Twenty-four hours after the last session, mice were injected vehicle or the lower dose of each test compound by the i.p. route 30 min prior to the FST. One week later, administration of the larger dose of each of the test compounds was repeated. During the pretest and test sessions, each mouse was placed for 6 min in a plastic cylinder (45 cm high×20 cm diameter), which was filled to a depth of 28 cm with water (23±1° C.). The duration of immobility, which was defined as floating in an upright position without additional activity other than that necessary for the animal to keep its head above water, was recorded.

DAT, SERT or NET = assay: Binding and reuptake inhibition in HEK cells containing DAT, SERT or NET (overall statement); format: cell-based, human; details: for transporter inhibition potency: DAT, SERT, NET binding and reuptake
Method: The data cannot be directly compared with Table 1 because the compounds of Table 3 were mixtures of diastereomers and isomers at all centers of chirality.
Transporter Binding Assays. […] Cells were scraped from plates and centrifuged for […] at 30,000×g and the pellet was re-suspended in 0.32 M sucrose with a Polytron at a setting of 1 for 5 sec. […] Membranes were pre-incubated with test compounds for […] before addition of [^125I]RTI-55. […] The incubations were done in the dark and terminated by filtration onto a Whatman GF/C filters using a 96-well Tomtech cell harvester (Tomtech, Orange, Conn.). Scintillation fluid was added to each filter spot and radioactivity remaining on the filter was determined using a Wallace β-plate reader (Wallace Labs, Cranbury, N.J.).

human PDE4B3 = molecular target: T2, human PDE4B3 (Homo sapiens, UniProt Q07343); assay: Inhibition of cAMP hydrolysis by recombinant human PDE4B3; format: biochemical; details: Example 29
T2 construct: made in house
T2 sequence (Q07343 1-721 isoform Q07343-3): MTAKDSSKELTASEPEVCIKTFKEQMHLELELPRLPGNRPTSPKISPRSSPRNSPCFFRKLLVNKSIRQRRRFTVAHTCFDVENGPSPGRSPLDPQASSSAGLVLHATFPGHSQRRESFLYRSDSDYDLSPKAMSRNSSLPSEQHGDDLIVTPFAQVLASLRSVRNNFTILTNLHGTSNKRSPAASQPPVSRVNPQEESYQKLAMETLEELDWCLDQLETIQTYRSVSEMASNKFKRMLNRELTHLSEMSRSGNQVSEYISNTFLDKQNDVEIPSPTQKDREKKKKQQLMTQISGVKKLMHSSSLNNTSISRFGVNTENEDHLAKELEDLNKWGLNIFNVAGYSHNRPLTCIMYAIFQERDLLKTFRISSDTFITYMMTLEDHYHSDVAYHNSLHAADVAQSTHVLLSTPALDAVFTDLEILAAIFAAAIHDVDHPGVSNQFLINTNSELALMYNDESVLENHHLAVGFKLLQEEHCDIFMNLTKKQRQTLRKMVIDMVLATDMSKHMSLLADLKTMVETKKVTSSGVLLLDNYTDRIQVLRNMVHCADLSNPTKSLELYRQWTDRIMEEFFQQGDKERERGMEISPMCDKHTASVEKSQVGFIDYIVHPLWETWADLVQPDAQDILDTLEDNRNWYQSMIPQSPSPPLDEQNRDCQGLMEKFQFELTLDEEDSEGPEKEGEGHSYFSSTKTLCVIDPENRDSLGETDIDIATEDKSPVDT
Method: as §1

[2] = Mouse liver microsome stability assay; format: in vitro ADME
Method: A typical assay mixture contained either mouse or rat liver microsomes (0.5 mg of protein), […] potassium phosphate buffer (pH 7.4), 40 μM test compounds, 0.5 mM NADP+, 0.5 mM glucose-6-phosphate, 5 IU/mL glucose-6-phosphate dehydrogenase, 1 mg/mL diethylenetriaminepentaacetic acid (DETAPAC) and 5 mM MgCl2 in a final incubation volume of 0.1 mL. After 0, 10, 25, 40 and […], the incubations were stopped by the addition of 1 ml CH2Cl2/2-propanol (3:1 v:v). The mixture was centrifuged at 12,000×g for 1 min, and the organic layer was separated from the aqueous fraction. The organic fraction was evaporated with a stream of argon and the residue was taken up in methanol (200 μL) and injected into the HPLC system described above.
as §2

mice = assay: Morris water maze test; format: in vivo, mouse; details: 3 mg/kg, compared to control mice
Method: Compounds 19 and 115 were tested in a Morris water maze test. The escape latency (time to climb onto a hidden platform) for each mouse was recorded as a memory test. […] Compared to a group of control mice, compound 19 and 115 caused a 30% improvement in memory at 3 mg/kg. […] This is not completely unexpected as SSRIs often require repeated dosing to see a large and significant effect. […] Multiple dosing likely will increase the efficacy of the compounds tested.

human PDE4D3 = molecular target: T3, human PDE4D3 (Homo sapiens, UniProt Q08499); assay: Inhibition of cAMP hydrolysis by recombinant human PDE4D3; format: biochemical
T3 construct: made in house; host or cells: Cos 7 cells (construct and cells a gift from Dr. Conti, Stanford)
T3 sequence (Q08499 1-673 isoform Q08499-2): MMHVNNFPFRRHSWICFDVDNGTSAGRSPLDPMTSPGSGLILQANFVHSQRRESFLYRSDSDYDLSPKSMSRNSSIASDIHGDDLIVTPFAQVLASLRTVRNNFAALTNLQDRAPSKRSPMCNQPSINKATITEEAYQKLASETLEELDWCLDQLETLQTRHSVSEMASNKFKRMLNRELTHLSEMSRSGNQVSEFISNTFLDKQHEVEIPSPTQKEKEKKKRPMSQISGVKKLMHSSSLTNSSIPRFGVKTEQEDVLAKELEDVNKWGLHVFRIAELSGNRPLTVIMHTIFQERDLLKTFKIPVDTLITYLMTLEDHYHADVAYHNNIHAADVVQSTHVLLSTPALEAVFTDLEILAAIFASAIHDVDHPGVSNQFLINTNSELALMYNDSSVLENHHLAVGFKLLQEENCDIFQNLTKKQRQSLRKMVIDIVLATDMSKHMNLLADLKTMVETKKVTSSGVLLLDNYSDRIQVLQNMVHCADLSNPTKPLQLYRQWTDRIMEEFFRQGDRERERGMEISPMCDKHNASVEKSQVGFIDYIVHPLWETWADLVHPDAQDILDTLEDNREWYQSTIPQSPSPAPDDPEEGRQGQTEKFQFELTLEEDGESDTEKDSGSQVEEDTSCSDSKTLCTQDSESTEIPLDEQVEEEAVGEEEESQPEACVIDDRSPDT
Method: The PDE construct was transfected into Cos 7 cells in round culture dish (100×20 mm). The cells were then harvested and homogenized with lysis buffer. The crude homogenate was spun at maximum speed in a microfuge. The supernatant fluid was saved as an extract. […] The PDE construct and Cos 7 cells were a kind gift from Dr. Conti at the Stanford University School of Medicine.
as §1

rodent PDE4 = assay: Inhibition of rodent PDE4 (rolipram binding sites); details: Table 4
Method: IC50 values for inhibitor interaction with this site were calculated by nonlinear regression analysis of competition curves for unlabeled PDE4 inhibitors; Ki values were determined according to the method of Cheng and Prusoff (1973). […] Competition curves for the PDE4 inhibitors were subjected to nonlinear regression analysis and IC50 values with which the inhibitors bind to each of the binding sites was determined; K1 values were determined according to the method of Cheng and Prusoff (1973).

[3] = Example 29, read-out: Ki, human PDE4A1
[4] = Table 14, read-out: Human PDE4A1 Ki
[5] = Example 29, read-out: Ki, human PDE4D3

COc1ccc(F)cc1CCCC1CCC(CCN)O1 (stereo not drawn) [Compound 15, 2-Aminoethyl-5-(3′-(2″-methoxy-5″-fluorophenyl)-1′-propyl)tetrahydrofuran]
duration of immobility, forced-swim test, acute (Balb/c mice): did not markedly alter the duration of immobility

COC(=O)[C@H]1[C@@H](OC(=O)c2ccccc2)C[C@@H]2CC[C@H]1N2C [Cocaine, reference compound]
onset of stimulant effects after injection (Swiss-Webster mice; 10 and 20 mg/kg): ≤ 10 min | ED50 (Swiss-Webster mice; Mus musculus, IP, 0-30 min, read-out: ED50 (dose producing 1/2 maximal stimulant activity)): 5.8 mg/kg | dose at maximum horizontal activity (Swiss-Webster mice; estimated from fitted curve): 23.4 mg/kg | maximum horizontal activity (Swiss-Webster mice; estimated from fitted curve, 0-30 min): 5520 counts/10 min

COc1ccc(C2=NNC(=O)[C@@H]3CC=CC[C@H]23)cc1OC (racemic) [Compound 19, 4-(3,4-Dimethoxy-phenyl)-4a,5,8,8a-tetrahydro-2H-phthalazin-1-one, reference compound]
Ki (human PDE4A1; [3]): > 1000 nM | Ki (human PDE4A1; [4]): < 1000 nM | half-life at 40 μM [1]: > 60 min | immobility, forced-swim test, acute, higher dose (ICR mice; 3 mg/kg i.p., vs vehicle, P<0.05): significantly reduced immobility | duration of immobility, forced-swim test, acute (ICR mice; 0.3 and 3 mg/kg i.p.): decreased duration of immobility in a dose-dependent manner | effect on RTI-55 binding or reuptake at any transporter (DAT, SERT or NET; hDAT, hSERT, hNET): essentially no measurable effect | Ki (human PDE4B3): 250 nM | half life, mouse liver microsomes ([2]; NADPH): 211 min | MLM t1/2 ([2]; Table 16): 211.3 min | improvement in memory (escape latency) (mice): 30% | PDE4A1/PDE4D3 inhibitory selectivity ratio (human PDE4D3): < 159 fold | PDE4B3/PDE4D3 inhibitory selectivity ratio (human PDE4D3): 40 fold | Ki (human PDE4D3; [5]): 6.3 nM

COc1ccc(C2=NNC(=O)C3CC=CCC23)cc1OC (racemic) [Compound 19, 4-(3,4-Dimethoxy-phenyl)-4a,5,8,8a-tetrahydro-2H-phthalazin-1-one, reference compound]
transporter inhibition potency (DAT, SERT or NET): no transporter inhibition potency | pIC50 (rodent PDE4): 6.7 | Ki (human PDE4D3; Table 5, recombinant human PDE 4D3, read-out: Ki): 6.3 nM

COc1ccc(F)cc1CCC1CCC(CCNCCCCCN2N=C(c3ccc(OC)c(OC)c3)C3CC=CC[C@H]3C2=O)O1 (stereo partly drawn) [Compound 115]
improvement in memory (escape latency) (mice): 30%

2-(5-Bromo-pentyl)-4-(3,4-dimethoxy-phenyl-4a,5,8,8a-tetrahydro-2H-phthalazin-1-one [Compound 20]
transporter inhibition potency (DAT, SERT or NET): no transporter inhibition potency

COc1ccc(C2CNC(=O)C2)cc1OC1CCCC1 (stereo not drawn) [Rolipram, reference compound]
forced-swim test behavior, acute (ICR mice; 0.5 mg/kg): did not alter FST behavior

COc1ccc(F)cc1CCC1CCC(CCN)O1 (stereo not drawn) [Compound 14, 2-Aminoethyl-5-(2′-methoxy-5′-fluorophenethyl)tetrahydrofuran]
immobility, forced-swim test, subchronic (Balb/c mice; i.p. 23, 5 and 1 hr prior, fluoxetine 10 mg/kg, 18k/l or 14 10 mg/kg, 21 1 mg/kg): did not change immobility | duration of immobility, forced-swim test, acute (Balb/c mice): did not markedly alter the duration of immobility | immobility, forced-swim test, acute (ICR mice; 10 and 30 mg/kg i.p.): tended to decrease immobility, but it was not statistically significant | half life, mouse liver microsomes ([2]; NADPH): 56 min | MLM t1/2 ([2]; Table 16): 56.0 min

COc1ccc(F)c(CCCC2CCC(CCNCCCCCN3N=C(c4ccc(OC)c(OC)c4)C4CC=CC[C@H]4C3=O)O2)c1 (stereo partly drawn) [Compound 22]
Ki (human PDE4A1; [3]): > 1000 nM | Ki (human PDE4A1; [4]): < 1000 nM | metabolism in human liver microsomes ([1]; NADPH, up to 60 min): No detectable metabolic instability | half-life at 40 μM [1]: > 60 min | Ki (human PDE4B3): 500 nM | metabolism in mouse liver microsomes ([2]; NADPH, up to 60 min): No detectable metabolic instability | half-life at 40 μM ([2]; mouse, liver microsomes, pH 7.4, Table 16, read-out: MLM t1/2): > 60 min | pIC50 (rodent PDE4): 6.3 | Ki (human PDE4D3; [5]): 1.2 nM

NCCC1CCC(CCc2ccccc2)O1 (stereo not drawn) [Compound 54, 2-(Aminoethyl)-5-(phenethyl)tetrahydrofuran]
other behavioral observations (Swiss-Webster mice; 100 mg/kg, 30, 120 and 480 minutes): No unusual effects were observed | onset of depressant effects after injection (Swiss-Webster mice; 30 and 100 mg/kg): ≤ 10 min | ID50 (dose producing 1/2 maximal depressant activity) (Swiss-Webster mice; IP, 0-30 min after injection): 39.8 mg/kg | CNS stimulation (Swiss-Webster mice; mouse, in vivo): did not cause CNS stimulation
